Data taken from patent US11618747B2, “LXR modulators with bicyclic core moiety” (OrsoBio, Inc., priority 2018, dated 2023).

Columns and labels:
[1] = target: T1, LXRβ ligand-binding domain (Homo sapiens, UniProt P55055, DUP175-175); assay: TR-FRETβ activity assay (NCoA3 coactivator peptide recruitment); type: biochemical; details: TR-FRET, 1 μM 24(S)-25-epoxycholesterol prestimulation; read-out: FRETβ (EC50 range)
T1 construct: amino acids 156-461; NP009052; made in house; host or cells: E. coli
T1 sequence (P55055 with tags, fused parts or gaps DUP175-175 limits assumed): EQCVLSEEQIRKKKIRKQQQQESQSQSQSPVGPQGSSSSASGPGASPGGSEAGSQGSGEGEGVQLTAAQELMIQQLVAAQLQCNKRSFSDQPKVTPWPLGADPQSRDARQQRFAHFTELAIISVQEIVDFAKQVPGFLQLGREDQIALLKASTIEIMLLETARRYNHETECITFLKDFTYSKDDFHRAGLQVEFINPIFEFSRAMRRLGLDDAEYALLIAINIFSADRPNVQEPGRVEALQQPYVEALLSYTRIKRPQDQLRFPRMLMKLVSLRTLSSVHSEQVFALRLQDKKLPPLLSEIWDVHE
Summary of the method: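 GST-tagged human LXRβ LBD (aa 156-461, E. coli) at 76 nM with 400 nM biotinylated NCoA3 peptide in Tris/HCl pH 6.8, 240 mM KCl, BSA, 0.002% Triton-X-100, plus 1 μM 24(S)-25-epoxycholesterol as prestimulating agonist. Compounds at 50 μM down to 0.002 μM, 1 h at 4 °C. Coactivator recruitment by TR-FRET (Tb cryptate/XL665, 615/665 nm), triplicates.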

[2] = target: T2, ligand-binding domain (LBD) of LXRβ (Homo sapiens, UniProt P55055, DUP175-175); assay: LXR Gal4 reporter transient transfection assay (LBD-M2H Gal4β); type: cell-based; details: HEK293 cells, LXRβ LBD; read-out: LBD-M2H Gal4β (EC50 range)
T2 construct: LXRβ (amino acids 156-461); expressed in transfected cells; host or cells: HEK293
T2 sequence (P55055 with tags, fused parts or gaps DUP175-175 limits assumed): T1 sequence (P55055 with tags, fused parts or gaps DUP175-175 limits assumed)
Protocol: (§1) The tested compounds were usually dissolved, tested and stored as 20 mM stock solutions in DMSO. Since sulfonyl acetic acid derivatives tend to decarboxylate under these conditions, these stock solutions were prepared, tested and stored as 20 mM DMSO stock solutions containing 100 mM trifluoroacetic Acid (5 equivalents). Sulfonyl acetic acid derivatives are shelf stable as solid at rt for long time as reported by Griesbrecht et al. (Synlett 2010:374) or Faucher et al. (J. Med. Chem. 2004; 47:18).
(§2) LXR Gal4 Reporter Transient Transfection Assays
(§3) LXRα and LXRβ activity status was determined via detection of interaction with coactivator and corepressor proteins in mammalian two-hybrid experiments (M2H). For this, via transient transfection the full length (FL) proteins of LXRα (amino acids 1-447; NP005684; SEQ ID NO:1) or LXRβ-(amino acids 1-461; NP009052; SEQ ID NO:2) or the ligand-binding domains (LBD) of LXRα (amino acids 155-447 SEQ ID NO:3) or LXRβ (amino acids 156-461; SEQ ID NO:4) were expressed from pCMV-AD (Stratagene) as fusions to the transcriptional activation domain of NFkB. As cofactors, domains of either the steroid receptor coactivator 1 (SRC1; amino acids 552-887; SEQ ID NO:5) or of the corepressor NCoR (amino acids 1906-2312; NP006302; SEQ ID NO:6) were expressed as fusions to the DNA binding domain of the yeast transcription factor GAL4 (from pCMV-BD; Stratagene). Interaction was monitored via activation of a coexpressed Firefly Luciferase Reporter gene under control of a promoter containing repetitive GAL4 response elements (vector pFRLuc; Stratagene). Transfection efficiency was controlled via cotransfection of constitutively active pRL-CMV Renila reniformis luciferase reporter (Promega). HEK293 cells were grown in minimum essential medium (MEM) with 2 mM L-glutamine and Earle's balanced salt solution supplemented with 8.3% fetal bovine serum, 0.1 mM non-essential amino acids, 1 mM sodium pyruvate, at 37° C. in 5% CO2. 3.5×10^4 cells/well were plated in 96-well cell culture plates in growth medium supplemented with 8.3% fetal bovine serum for 16-20 h to ˜90% confluency. For transfection, medium was taken off and LXR and cofactor expressing plasmids as well as the reporter plasmids are added in 30 μL OPTIMEM/well including polyethylene-imine (PEI) as vehicle. Typical amounts of plasmids transfected/well: pCMV-AD-LXR (5 ng), pCMV-BD-cofactor (5 ng), pFR-Luc (100 ng), pRL-CMV (0.5 ng). Compound stocks were prepared in DMSO, prediluted in MEM to a total volume of 120 μL, and added 4 h after addition of the transfection mixture (final vehicle concentration not exceeding 0.2%). Cells were incubated for additional 16 h, lysed for 10 min in 1× Passive Lysis Buffer (Promega) and Firefly and Renilla luciferase activities were measured sequentially in the same cell extract using buffers containing D-luciferine and coelenterazine, respectively. Measurements of luminescence were done in a BMG-luminometer.

[3] = target: T3, ligand-binding domain (LBD) of LXRα (Homo sapiens, UniProt Q13133); assay: LXR Gal4 reporter transient transfection assay (LBD-M2H Gal4α); type: cell-based; details: HEK293 cells, LXRα LBD; read-out: LBD-M2H Gal4α (EC50 range)
T3 construct: expressed in transfected cells; host or cells: HEK293
T3 sequence (Q13133 155-447): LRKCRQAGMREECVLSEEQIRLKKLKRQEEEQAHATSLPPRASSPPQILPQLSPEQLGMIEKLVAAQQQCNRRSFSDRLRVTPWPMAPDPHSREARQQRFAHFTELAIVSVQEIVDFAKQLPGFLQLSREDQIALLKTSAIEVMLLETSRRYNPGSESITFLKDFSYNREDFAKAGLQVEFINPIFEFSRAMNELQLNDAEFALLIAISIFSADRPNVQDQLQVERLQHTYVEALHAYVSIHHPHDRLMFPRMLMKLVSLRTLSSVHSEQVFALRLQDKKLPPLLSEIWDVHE
Protocol: as §1, §2, §3

SMILES	EC50 [1] [nM]	EC50 [2] [nM]	EC50 [3] [nM]
Cc1ccc(S(=O)(=O)n2c(-c3cccc(C4CC4C(=O)O)c3)c(-c3ccsc3C#N)c3ccccc32)cc1 (racemic) [Example 30, rac-(1R,2R)-2-(3-(3-(2-Cyanothiophen-3-yl)-1-tosyl-1H-indol-2-yl)phenyl)cyclopropane-1-carboxylic Acid]	100 to 1000	< 100	
Cc1ccc(S(=O)(=O)n2c(-c3ccsc3)c(-c3ccsc3C#N)c3ccccc32)cc1 [1/23]	100 to 1000	< 100	< 100
Cc1cc(C)c(S(=O)(=O)n2c(-c3cccs3)c(-c3ccsc3C#N)c3ccccc32)c(C)c1 [1/26]	1000 to 10000	< 100	100 to 1000
N#Cc1sccc1-c1c(-c2cccs2)n(S(=O)(=O)c2cccc3ccccc23)c2ccccc12 [1/27]	1000 to 10000	< 100	100 to 1000
Cn1cnc(S(=O)(=O)n2c(-c3cccs3)c(-c3ccsc3C#N)c3ccccc32)c1 [1/28]	1000 to 10000	< 100	100 to 1000
COc1ccc2c(c1)c(-c1ccsc1C#N)c(-c1cccs1)n2S(=O)(=O)c1ccc(Cl)cc1 [1/39]	> 10000		1000 to 10000
COc1ccc2c(-c3ccsc3C#N)c(-c3cccs3)n(S(=O)(=O)c3ccc(Cl)cc3)c2c1 [1/40]	1000 to 10000	< 100	100 to 1000
N#Cc1sccc1-c1c(-c2ccccc2)n(S(=O)(=O)c2cccnc2)c2ccccc12 [1/41]	1000 to 10000	< 100	100 to 1000
Cc1ncc(S(=O)(=O)n2c(-c3ccccc3)c(-c3ccsc3C#N)c3ccccc32)s1 [1/42]	1000 to 10000	< 100	< 100
Cc1cccc(S(=O)(=O)n2c(-c3cccc(N4CC(C(=O)O)C4)c3)c(-c3ccsc3C#N)c3cc(F)ccc32)c1 [3/8]	1000 to 10000	< 100	
N#Cc1sccc1-c1c(-c2cccc(N3CC(C(=O)O)C3)c2)n(S(=O)(=O)c2ccccc2)c2ccc(F)cc12 [3/9]	1000 to 10000	< 100	100 to 1000
Cc1ccc(S(=O)(=O)n2c(-c3ccc(CC(C)(C)C(=O)O)s3)c(-c3ccsc3C#N)c3ccccc32)cc1 [3/16]	1000 to 10000	100 to 1000	100 to 1000
COc1ccc(S(=O)(=O)n2c(-c3ccc(CCC(=O)O)cc3)c(-c3ccsc3C#N)c3ccccc32)cc1 [15/6]	1000 to 10000	100 to 1000	
COc1ccc(S(=O)(=O)n2c(-c3cccs3)c(-c3ccsc3C#N)c3ccccc32)cc1 [20/14]	100 to 1000	< 100	
COC(=O)CCc1ccc(S(=O)(=O)n2c(-c3cccs3)c(-c3ccsc3C#N)c3ccccc32)cc1 [20/15]	100 to 1000	100 to 1000	
COc1ccc(S(=O)(=O)n2c(-c3ccccc3)c(-c3cc4ccccc4nc3C#N)c3ccccc32)cc1 [20/17]		100 to 1000	
COc1ccc(S(=O)(=O)n2c(-c3ccccc3)c(-c3c(C#N)sc4ccccc34)c3ccccc32)cc1 [20/18]		< 100	100 to 1000
N#Cc1sccc1-c1c(-c2cccs2)n(S(=O)(=O)c2ccc(CCC(=O)O)cc2)c2ccccc12 [23/1]	1000 to 10000	< 100	
Cc1ccc(S(=O)(=O)n2c(-c3cccc(-c4cncc(C(C)(C)C(=O)O)c4)c3)c(-c3ccsc3C#N)c3ccccc32)cc1 [30/3]		100 to 1000	100 to 1000
N#Cc1sccc1-c1c(-c2cccs2)n(S(=O)(=O)c2ccc(Cl)cc2)c2ccc(O)cc12 [Example 13, 3-(1-((4-Chlorophenyl)sulfonyl)-5-hydroxy-2-(thiophen-2-yl)-1t-indol-3-yl)thiophene-2-carbonitrile]	100 to 1000	< 100	
N#Cc1sccc1-c1c(-c2cccs2)n(S(=O)(=O)c2ccc(Cl)cc2)c2ccc(OCC(=O)O)cc12 [Example 15, 2-((1-((4-Chlorophenyl)sulfonyl)-3-(2-cyanothiophen-3-yl)-2-(thiophen-2-yl)-1H-indol-5-yl)oxy)acetic Acid]	> 10000	> 10000	
N#Cc1sccc1-c1c(-c2cccs2)n(S(=O)(=O)c2ccc(Cl)cc2)c2cc(CCC(=O)O)c(O)cc12 [Example 17, 3-(1-((4-Chlorophenyl)sulfonyl)-3-(2-cyanothiophen-3-yl)-5-hydroxy-2-(thiophen-2-yl)-1H-indol-6-yl)propanoic Acid]	> 10000	1000 to 10000	
O=S(=O)(c1ccc(Cl)cc1)n1c(-c2cccs2)c(-c2ccsc2Cl)c2ccccc21 [Example 20, 1-((4-Chlorophenyl)sulfonyl)-3-(2-chlorothiophen-3-yl)-2-(thiophen-2-yl)-1H-indole]	100 to 1000	< 100	
O=C(O)c1sccc1-c1c(-c2cccs2)n(S(=O)(=O)c2ccc(Cl)cc2)c2ccccc12 [Example 21, 3-(1-((4-Chlorophenyl)sulfonyl)-2-(thiophen-2-yl)-1H-indol-3-yl)thiophene-2-carboxylic Acid]	> 10000	1000 to 10000	
N#Cc1sccc1-c1c(-c2cccs2)n(S(=O)(=O)c2ccc(Cl)cc2)c2ccc(C(=O)O)cc12 [Example 23, 1-((4-Chlorophenyl)sulfonyl)-3-(2-cyanothiophen-3-yl)-2-(thiophen-2-yl)-1H-indole-5-carboxylic Acid]	> 10000	100 to 1000	
N#Cc1sccc1-c1c(-c2cncs2)n(S(=O)(=O)c2ccc(Cl)cc2)c2ccccc12 [Example 25]	1000 to 10000	< 100	
N#Cc1sccc1-c1c(-c2ccccc2)n(S(=O)(=O)c2ccc(OCC(=O)O)cc2)c2ccccc12 [Example 27, 2-(4-((3-(2-Cyanothiophen-3-yl)-2-phenyl-1-H-indol-1-yl)sulfonyl)phenoxy)acetic Acid]	1000 to 10000	100 to 1000	
COc1ccc(S(=O)(=O)n2c(-c3ccc(CCC(N)=O)cc3)c(-c3ccsc3C#N)c3ccccc32)cc1 [Example 28, 3-(4-(3-(2-Cyanothiophen-3-yl)-1-((4-methoxyphenyl)sulfonyl)-1H-indol-2-yl)phenyl)propan-amide]	1000 to 10000	100 to 1000	
Cc1ccc(S(=O)(=O)n2c(-c3cccc(-c4cccc(C(=O)NS(C)(=O)=O)c4)c3)c(-c3ccsc3C#N)c3ccccc32)cc1 [Example 32, 3′-(3-(2-Cyanothiophen-3-yl)-1-tosyl-1H-indol-2-yl)-N-(methylsulfonyl)-[1,1′-biphenyl]-3-carboxamide]	100 to 1000	100 to 1000	
